For data set [1], the target named is T1, recombinant human PDE5 (Homo sapiens, UniProt O76074).
T1 construct: purchased BPS Biosciences, San Diego, CA, USA
Nature of the data set: In vitro PDE5 inhibitory activity (IMAP FP phosphodiesterase assay). It is filed as biochemical. Particulars: purified PDE5, 50 nM TAMRA-cGMP, 1.5 h at 30 °C; 10 concentrations, at least two replicates; read-out: PDE5 Inhibition IC50. On the procedure:
Phosphodiesterase Assay: 5 U/mL of purified PDE5 (BPS Biosciences, San Diego, CA, USA) was added to the wells of black 96-well non-binding plates. Immediately, the protein was treated with the compound or vehicle control and 50 nM TAMRA-cGMP and 50 nM Fluourescein-cAMP (Molecular Devices, Sunnyvale, CA, USA) were added to each assay well. The plates were incubated for 1.5 h at 30 °C. After incubation, the IMAP FP Phosphodiesterase Evaluation Assay (Molecular Devices, Sunnyvale, CA, USA) binding reagent was added to each well and the plates were incubated for an additional 30 min at 30 °C. FP was measured according to manufacturer’s specifications using a Biotech Synergy 4 plate reader. PDE activity was expressed by an IC50 value (50% inhibitory concentration). Data analysis was done through dose-response analysis, which was repeated at least twice to confirm the reproducibility of the IC50 values.
All the synthesized final THβC compounds were tested for their ability to inhibit recombinant human PDE5. Most of the compounds were evaluated in two steps. The first step was the determination of the percentage inhibition at a screening dose of 10 μM performed in triplicate. For compounds displaying a percentage of inhibition >50%, the IC50 was then determined by testing a range of 10 concentrations with at least two replicates per concentration (Table 2).

Data set [2] concerns the target phosphodiesterase-5 (PDE5). The note with it: previously reported tadalafil analogues, introduction; cited from earlier work.

Regarding `O=C1[C@@H]2Cc3c([nH]c4ccccc34)[C@@H](c3ccc(Cl)cc3)N2C(=O)CN1CCCCO` [Compound 6o, (6R,12aS)-6-(4-Chloro-phenyl)-2-(4-hydroxy-butyl)-2,3,6,7,12,12a-hexahydropyrazino[1’,2’:1,6]pyrido[3,4-b]indole-1,4-dione], the melting point (commonly the temperature, or range, at which the solid turns liquid) was in the range of 199 to 203 °C. Further, the IC50 (as a rule, the concentration at which inhibition is half-maximal) in data set [1] was 2.31 µM. The corresponding values for `O=C1[C@@H]2Cc3c([nH]c4ccccc34)[C@@H](c3ccc(Cl)cc3)N2C(=O)CN1CCO` [Compound 6m, (6R,12aS)-6-(4-Chloro-phenyl)-2-(2-hydroxy-ethyl)-2,3,6,7,12,12a-hexahydro-pyrazino[1’,2’:1,6]pyrido[3,4-b]indole-1,4-dione] are 202 to 206 °C and above 10 µM. In the same order, the values of `O=C1[C@@H]2Cc3c([nH]c4ccccc34)[C@H](c3ccc(Cl)cc3)N2C(=O)CN1CCCCO` [Compound 6k, (6S,12aS)-6-(4-Chloro-phenyl)-2-(4-hydroxy-butyl)-2,3,6,7,12,12a-hexahydropyrazino[1’,2’:1,6]pyrido[3,4-b]indole-1,4-dione] are 227 to 229 °C and 2.31 µM. Regarding `CCN1CC(=O)N2[C@H](c3ccc(Br)cc3)c3[nH]c4ccccc4c3C[C@@H]2C1=O` [Compound 3], the IC50 in data set [2] is 0.003 µM.

With `O=C1[C@H]2Cc3c([nH]c4ccccc34)[C@@H](c3ccc(Cl)cc3)N2C(=O)CN1CCCCO` [Compound 6c, (6R,12aR)-6-(4-Chloro-phenyl)-2-(4-hydroxy-butyl)-2,3,6,7,12,12a-hexahydropyrazino[1’,2’:1,6]pyrido[3,4-b]indole-1,4-dione], the melting point is 228 to 230 °C. The IC50 in data set [1] turned out to be 0.12 µM. Regarding `CCN1CC(=O)N2[C@H](c3ccc(Cl)cc3)c3[nH]c4ccccc4c3C[C@@H]2C1=O` [Compound 2], the IC50 in data set [2] is 0.003 µM. Take `O=C1[C@H]2Cc3c([nH]c4ccccc34)[C@H](c3ccc(Cl)cc3)N2C(=O)CN1CCO` [Compound 6e, (6S,12aR)-6-(4-Chloro-phenyl)-2-(2-hydroxy-ethyl)-2,3,6,7,12,12a-hexahydro-pyrazino[1’,2’:1,6]pyrido[3,4-b]indole-1,4-dione]: the melting point is 202 to 206 °C. The IC50 in data set [1] was found to be 4.7 µM. In the same order, the values of `O=C1[C@H]2Cc3c([nH]c4ccccc34)[C@H](c3ccc(Cl)cc3)N2C(=O)CN1CCCCO` [Compound 6g, (6S,12aR)-6-(4-Chloro-phenyl)-2-(4-hydroxy-butyl)-2,3,6,7,12,12a-hexahydropyrazino[1’,2’:1,6]pyrido[3,4-b]indole-1,4-dione] are 200 to 203 °C and above 10 µM.

For `NCCN1CC(=O)N2[C@@H](c3ccc(Cl)cc3)c3[nH]c4ccccc4c3C[C@@H]2C1=O` [Compound 6f, (6S,12aR)-2-(2-Amino-ethyl)-6-(4-chloro-phenyl)-2,3,6,7,12,12a-hexahydro-pyrazino[1’,2’:1,6]pyrido[3,4-b]indole-1,4-dione], the melting point lay in the range of 200 to 204 °C. Moreover, the IC50 in data set [1] was above 10 µM.

The compound `O=C1[C@H]2Cc3c([nH]c4ccccc34)[C@@H](c3ccc(Cl)cc3)N2C(=O)CN1CCO` [Compound 6a, (6R,12aR)6-(4-Chloro-phenyl)-2-(2-hydroxy-ethyl)-2,3,6,7,12,12a-hexahydro-pyrazino[1’,2’:1,6]pyrido[3,4-b]indole-1,4-dione] gave a melting point of 230 to 233 °C. The IC50 in data set [1] is above 10 µM. Take `NCCN1CC(=O)N2[C@H](c3ccc(Cl)cc3)c3[nH]c4ccccc4c3C[C@@H]2C1=O` [Compound 6b, (6R,12aR)-2-(2-Amino-ethyl)-6-(4-chloro-phenyl)-2,3,6,7,12,12a-hexahydro-pyrazino[1’,2’:1,6]pyrido[3,4-b]indole-1,4-dione]: the melting point fell in the range of 231 to 234 °C. Besides, the half-inhibitory concentration (IC50) in data set [1] was determined as 3.6 µM. In the same order, the values of `NCCCCN1CC(=O)N2[C@@H](c3ccc(Cl)cc3)c3[nH]c4ccccc4c3C[C@@H]2C1=O` [Compound 6h, (6S,12R)-2-(4-Amino-butyl)-6-(4-chloro-phenyl)-2,3,6,7,12,12a-hexahydro-pyrazino[1’,2’:1,6]pyrido[3,4-b]indole-1,4-dione] are 200 to 202 °C and 3.1 µM. On to `NCCN1CC(=O)N2[C@H](c3ccc(Cl)cc3)c3[nH]c4ccccc4c3C[C@H]2C1=O` [Compound 6n, (6R,12aS)-2-(2-Amino-ethyl)-6-(4-chloro-phenyl)-2,3,6,7,12,12a-hexahydro-pyrazino[1’,2’:1,6]pyrido[3,4-b]indole-1,4-dione], for which the melting point lay in the range of 200 to 204 °C. For the same compound, in data set [1], the IC50 is above 10 µM.

The values are drawn from article PMC5064235, “Structure-Based Design of Novel Tetrahydro-Beta-Carboline Derivatives with a Hydrophilic Side Chain as Potential Phosphodiesterase Inhibitors” (Scientia Pharmaceutica, 2015).
